Source: patent publication US20220187282A1, “CARDIOMYOCYTE PROLIFERATION” (The Council of the Queensland Institute of Medical Research, priority 2019, published 2022)
Like-named read-outs stand apart in the source and are kept apart here.

Experiments:
Format in all cases: biochemical
[1] = target: kinases (Homo sapiens, UniProt P07948); conditions: LYN A Hu Phos FRET-Z-Lyte SP; Test Conc(μM):ATP Conc(μM) 1:25
[2] = target: kinases (Homo sapiens, UniProt O95819); conditions: MAP4K4 (HGK) FRET-Z-Lyte SP; Test Conc(μM):ATP Conc(μM) 1:10
[3] = target: kinases (Homo sapiens, UniProt Q00534); conditions: CDK6 Cyclin D1 FRET-Adapta SP; Test Conc(μM):ATP Conc(μM) 1:10
kinases (Homo sapiens, UniProt Q00534), sequence (Q00534 whole entry): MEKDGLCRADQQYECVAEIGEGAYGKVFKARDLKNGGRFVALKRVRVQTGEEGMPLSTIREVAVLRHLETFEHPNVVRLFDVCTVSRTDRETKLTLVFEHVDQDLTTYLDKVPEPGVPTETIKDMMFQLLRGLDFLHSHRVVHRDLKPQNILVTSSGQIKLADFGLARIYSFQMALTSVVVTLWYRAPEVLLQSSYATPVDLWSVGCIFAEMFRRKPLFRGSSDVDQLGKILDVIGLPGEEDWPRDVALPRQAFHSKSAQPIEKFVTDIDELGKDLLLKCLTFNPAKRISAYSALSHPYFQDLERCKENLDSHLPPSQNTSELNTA

[4] = target: kinases (Homo sapiens, UniProt P51617); conditions: IRAK1 FRET-Adapta SP; Test Conc(μM):ATP Conc(μM) 1:25
kinases (Homo sapiens, UniProt P51617), sequence (P51617 whole entry): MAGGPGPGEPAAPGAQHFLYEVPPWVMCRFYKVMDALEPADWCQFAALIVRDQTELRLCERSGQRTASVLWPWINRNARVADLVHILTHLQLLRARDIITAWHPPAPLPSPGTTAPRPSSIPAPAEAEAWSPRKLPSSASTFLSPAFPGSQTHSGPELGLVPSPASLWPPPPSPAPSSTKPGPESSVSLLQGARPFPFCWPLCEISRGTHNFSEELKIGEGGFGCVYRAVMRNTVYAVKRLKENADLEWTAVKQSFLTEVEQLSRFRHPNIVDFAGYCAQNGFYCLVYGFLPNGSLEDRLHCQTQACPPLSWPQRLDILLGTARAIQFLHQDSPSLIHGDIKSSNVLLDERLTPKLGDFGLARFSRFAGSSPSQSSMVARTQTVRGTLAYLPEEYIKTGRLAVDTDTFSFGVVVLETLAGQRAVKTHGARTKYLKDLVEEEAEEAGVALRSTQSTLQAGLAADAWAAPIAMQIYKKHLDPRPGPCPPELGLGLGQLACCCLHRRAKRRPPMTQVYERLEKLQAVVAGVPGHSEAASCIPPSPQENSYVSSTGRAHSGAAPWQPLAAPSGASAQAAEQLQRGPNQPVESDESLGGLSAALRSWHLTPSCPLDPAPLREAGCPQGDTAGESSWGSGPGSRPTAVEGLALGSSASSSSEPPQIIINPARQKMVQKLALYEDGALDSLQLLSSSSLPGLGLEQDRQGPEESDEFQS

[5] = target: kinases (Homo sapiens, UniProt P35968); conditions: KDR (VEGFR2) FRET-Z-Lyte SP; Test Conc(μM):ATP Conc(μM) 1:75
[6] = target: kinases (Homo sapiens, UniProt Q9Y463); conditions: DYRK1B FRET-Z-Lyte SP; Test Conc(μM):ATP Conc(μM) 1:75
kinases (Homo sapiens, UniProt Q9Y463), sequence (Q9Y463 whole entry): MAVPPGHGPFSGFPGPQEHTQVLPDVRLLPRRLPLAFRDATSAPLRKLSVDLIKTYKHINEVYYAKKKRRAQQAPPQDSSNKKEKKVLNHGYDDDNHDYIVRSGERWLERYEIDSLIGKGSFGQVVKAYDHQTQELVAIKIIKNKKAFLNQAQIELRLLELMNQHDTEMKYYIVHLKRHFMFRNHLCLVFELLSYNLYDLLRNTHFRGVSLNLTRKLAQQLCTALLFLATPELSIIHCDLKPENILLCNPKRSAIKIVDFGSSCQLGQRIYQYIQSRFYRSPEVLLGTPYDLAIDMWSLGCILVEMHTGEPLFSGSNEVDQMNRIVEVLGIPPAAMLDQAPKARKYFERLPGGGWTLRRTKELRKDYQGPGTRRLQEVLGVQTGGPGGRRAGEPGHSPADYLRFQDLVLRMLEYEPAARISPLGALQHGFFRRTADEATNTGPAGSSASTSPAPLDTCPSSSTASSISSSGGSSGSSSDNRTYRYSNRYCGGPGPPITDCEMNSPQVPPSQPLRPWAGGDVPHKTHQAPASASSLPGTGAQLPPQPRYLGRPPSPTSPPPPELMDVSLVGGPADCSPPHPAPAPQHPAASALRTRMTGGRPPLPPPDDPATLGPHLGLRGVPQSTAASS

[7] = target: kinases (Homo sapiens, UniProt Q9Y616); conditions: IRAK3 FRET-Lantha SP; Test Conc(μM) 1
[8] = target: kinases (Homo sapiens, UniProt Q9H792); conditions: PEAK1 FRET-Z-Lyte SP; Test Conc(μM):ATP Conc(μM) 1:50
[9] = target: kinases (Homo sapiens, UniProt P34947); conditions: GRK5 *Mn* FRET-Z-Lyte SP; Test Conc(μM):ATP Conc(μM) 1:5
[10] = target: kinases (Homo sapiens, UniProt P14616); conditions: INSRR (IRR) *Mn* Z-Lyte SP; Test Conc(μM):ATP Conc(μM) 1:50
[11] = target: kinases (Homo sapiens, UniProt Q12851); conditions: MAP4K2 (GCK) FRET-Z-Lyte SP; Test Conc(μM):ATP Conc(μM) 1:100
[12] = target: kinases (Homo sapiens, UniProt P06213); conditions: INSR *Mn* FRET-Z-Lyte SP; Test Conc(μM):ATP Conc(μM) 1:25
[13] = target: kinases (Homo sapiens, UniProt Q9NQU5); conditions: PAK6 FRET-Z-Lyte SP; Test Conc(μM):ATP Conc(μM) 1:10
[14] = target: kinases (Homo sapiens, UniProt Q99755); conditions: PIP5K1A FRET-Adapta SP; Test Conc(μM):ATP Conc(μM) 1:10
[15] = target: kinases (Homo sapiens, UniProt Q09013); conditions: DMPK FRET-Lantha SP; Test Conc(μM) 1
[16] = target: kinases (Homo sapiens, UniProt P04629); conditions: NTRK1 (TRKA) FRET-Z-Lyte SP; Test Conc(μM):ATP Conc(μM) 1:400
[17] = target: kinases (Homo sapiens, UniProt Q14289); conditions: PTK2B (FAK2) *Mn* Z-Lyte SP; Test Conc(μM):ATP Conc(μM) 1:5
[18] = target: kinases (Homo sapiens, UniProt Q13043); conditions: STK4 (MST1) FRET-Z-Lyte SP; Test Conc(μM):ATP Conc(μM) 1:50
[19] = target: kinases (Homo sapiens, UniProt Q6DT37); conditions: CDC42 BPG FRET-Z-Lyte SP; Test Conc(μM):ATP Conc(μM) 1:5
[20] = target: kinases (Homo sapiens, UniProt O75676); conditions: RPS6KA4 (MSK2) FRET-Z-Lyte SP; Test Conc(μM):ATP Conc(μM) 1:10
[21] = target: kinases (Homo sapiens, UniProt Q9UBS0); conditions: RPS6KB2 FRET-Z-Lyte SP; Test Conc(μM):ATP Conc(μM) 1:50
kinases (Homo sapiens, UniProt Q9UBS0), sequence (Q9UBS0 whole entry): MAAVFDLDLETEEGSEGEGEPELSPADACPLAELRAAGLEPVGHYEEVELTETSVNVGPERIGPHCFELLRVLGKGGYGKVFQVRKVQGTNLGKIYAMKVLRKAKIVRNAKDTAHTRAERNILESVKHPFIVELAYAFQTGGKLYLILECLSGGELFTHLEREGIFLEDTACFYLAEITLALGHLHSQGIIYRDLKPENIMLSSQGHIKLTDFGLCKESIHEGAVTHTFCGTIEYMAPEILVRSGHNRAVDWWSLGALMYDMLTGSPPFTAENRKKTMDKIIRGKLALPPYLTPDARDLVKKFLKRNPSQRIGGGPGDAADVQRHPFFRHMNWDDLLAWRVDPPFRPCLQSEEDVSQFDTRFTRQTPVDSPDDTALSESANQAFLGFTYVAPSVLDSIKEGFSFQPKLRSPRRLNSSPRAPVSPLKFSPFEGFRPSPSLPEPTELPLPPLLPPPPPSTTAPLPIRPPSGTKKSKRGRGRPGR

[22] = target: kinases (Homo sapiens, UniProt Q16832); conditions: DDR2 Hu Bind FRET-Lantha SP; Test Conc(μM) 1
[23] = target: kinases (Homo sapiens, UniProt Q56UN5); conditions: MAP3K19 (YSK4) FRET-Z-Lyte SP; Test Conc(μM):ATP Conc(μM) 1:5
[24] = target: kinases (Homo sapiens, UniProt Q9H4A3); conditions: Test Conc(μM) 1
kinases (Homo sapiens, UniProt Q9H4A3), sequence (Q9H4A3 whole entry): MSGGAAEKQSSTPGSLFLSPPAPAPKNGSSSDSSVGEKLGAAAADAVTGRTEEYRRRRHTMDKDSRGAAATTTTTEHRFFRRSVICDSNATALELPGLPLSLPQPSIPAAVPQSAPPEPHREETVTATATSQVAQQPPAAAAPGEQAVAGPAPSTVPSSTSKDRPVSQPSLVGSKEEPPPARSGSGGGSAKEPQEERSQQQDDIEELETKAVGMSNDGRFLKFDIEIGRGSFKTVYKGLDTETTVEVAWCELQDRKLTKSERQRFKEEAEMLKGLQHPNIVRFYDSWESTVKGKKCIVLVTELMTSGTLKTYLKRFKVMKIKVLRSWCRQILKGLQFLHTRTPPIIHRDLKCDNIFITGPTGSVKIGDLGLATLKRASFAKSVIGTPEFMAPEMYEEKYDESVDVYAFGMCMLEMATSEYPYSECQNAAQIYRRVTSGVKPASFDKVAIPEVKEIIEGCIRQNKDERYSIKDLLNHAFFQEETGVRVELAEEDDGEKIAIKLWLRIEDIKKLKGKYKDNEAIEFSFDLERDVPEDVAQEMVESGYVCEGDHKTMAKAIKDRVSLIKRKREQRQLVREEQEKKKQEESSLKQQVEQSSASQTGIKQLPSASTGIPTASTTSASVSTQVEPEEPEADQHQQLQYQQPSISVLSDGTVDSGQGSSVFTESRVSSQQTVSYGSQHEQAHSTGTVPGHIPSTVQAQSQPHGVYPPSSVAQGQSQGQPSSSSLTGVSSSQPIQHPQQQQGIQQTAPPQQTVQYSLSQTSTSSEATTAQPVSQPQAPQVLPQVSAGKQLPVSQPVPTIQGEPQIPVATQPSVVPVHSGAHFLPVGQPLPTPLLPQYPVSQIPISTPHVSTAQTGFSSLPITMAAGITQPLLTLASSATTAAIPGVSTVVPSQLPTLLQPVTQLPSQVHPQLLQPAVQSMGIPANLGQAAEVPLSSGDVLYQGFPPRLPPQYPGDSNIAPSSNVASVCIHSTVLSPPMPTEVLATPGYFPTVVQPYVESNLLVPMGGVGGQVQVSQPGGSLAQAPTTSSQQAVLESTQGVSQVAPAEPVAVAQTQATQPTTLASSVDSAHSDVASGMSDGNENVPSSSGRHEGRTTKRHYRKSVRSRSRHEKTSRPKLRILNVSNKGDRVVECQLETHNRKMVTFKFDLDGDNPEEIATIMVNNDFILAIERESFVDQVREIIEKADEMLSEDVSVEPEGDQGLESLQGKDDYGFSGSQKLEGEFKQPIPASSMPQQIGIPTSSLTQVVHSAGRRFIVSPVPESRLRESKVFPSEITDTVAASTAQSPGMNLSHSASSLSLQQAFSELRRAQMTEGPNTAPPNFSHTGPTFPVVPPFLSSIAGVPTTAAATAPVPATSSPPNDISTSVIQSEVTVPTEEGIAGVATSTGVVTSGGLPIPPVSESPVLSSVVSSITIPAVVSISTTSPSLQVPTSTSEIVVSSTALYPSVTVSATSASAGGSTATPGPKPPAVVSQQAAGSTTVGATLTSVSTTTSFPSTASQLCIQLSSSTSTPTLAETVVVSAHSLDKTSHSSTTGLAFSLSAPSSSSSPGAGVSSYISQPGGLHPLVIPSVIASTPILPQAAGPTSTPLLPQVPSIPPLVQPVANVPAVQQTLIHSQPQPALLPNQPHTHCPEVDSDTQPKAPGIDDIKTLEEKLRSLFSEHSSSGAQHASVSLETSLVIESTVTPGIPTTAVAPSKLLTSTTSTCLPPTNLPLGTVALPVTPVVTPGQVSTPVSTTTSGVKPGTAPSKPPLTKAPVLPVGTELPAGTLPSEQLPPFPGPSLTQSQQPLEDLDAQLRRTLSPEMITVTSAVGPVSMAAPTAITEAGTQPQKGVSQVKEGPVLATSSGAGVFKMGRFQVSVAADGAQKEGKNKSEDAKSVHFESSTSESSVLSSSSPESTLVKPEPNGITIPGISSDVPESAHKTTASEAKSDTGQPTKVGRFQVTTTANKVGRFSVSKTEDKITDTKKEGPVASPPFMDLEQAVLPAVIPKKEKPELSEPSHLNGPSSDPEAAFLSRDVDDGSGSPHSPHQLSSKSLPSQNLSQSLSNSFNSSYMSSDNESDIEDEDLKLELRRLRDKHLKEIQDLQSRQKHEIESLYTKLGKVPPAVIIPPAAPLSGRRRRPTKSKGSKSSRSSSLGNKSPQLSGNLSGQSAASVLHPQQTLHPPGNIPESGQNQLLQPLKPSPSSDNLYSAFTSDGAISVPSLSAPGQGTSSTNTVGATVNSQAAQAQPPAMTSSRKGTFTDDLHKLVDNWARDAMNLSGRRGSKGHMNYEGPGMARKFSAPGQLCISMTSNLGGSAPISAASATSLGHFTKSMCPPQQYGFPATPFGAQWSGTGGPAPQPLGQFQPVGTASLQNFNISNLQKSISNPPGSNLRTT

[25] = target: kinases (Homo sapiens, UniProt P45984)
kinases (Homo sapiens, UniProt P45984), sequence (P45984 whole entry): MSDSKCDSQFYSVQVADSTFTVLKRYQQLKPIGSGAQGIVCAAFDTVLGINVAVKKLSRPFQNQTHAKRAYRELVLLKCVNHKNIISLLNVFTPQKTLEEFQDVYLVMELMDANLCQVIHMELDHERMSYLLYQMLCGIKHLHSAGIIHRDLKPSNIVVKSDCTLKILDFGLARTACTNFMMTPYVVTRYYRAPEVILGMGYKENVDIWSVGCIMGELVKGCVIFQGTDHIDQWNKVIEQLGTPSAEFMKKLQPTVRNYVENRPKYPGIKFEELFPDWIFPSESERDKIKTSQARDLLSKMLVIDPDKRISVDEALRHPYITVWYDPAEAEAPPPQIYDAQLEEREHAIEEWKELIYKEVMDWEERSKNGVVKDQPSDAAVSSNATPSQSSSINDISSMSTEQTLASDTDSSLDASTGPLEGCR

[26] = MAPK9 (JNK2) Cascade Z-Lyte SP, Test Conc(μM):ATP Conc(μM) 1:100
[27] = MAPK9 (JNK2) FRET-Lantha SP, Test Conc(μM) 1

| Compound | Mean Inhib (%) [1] [%] | Mean Inhib (%) [2] [%] | Mean Inhib (%) [3] [%] | Mean Inhib (%) [4] [%] | Mean Inhib (%) [5] [%] | Mean Inhib (%) [6] [%] | Mean Inhib (%) [7] [%] | Mean Inhib (%) [8] [%] | Mean Inhib (%) [9] [%] | Mean Inhib (%) [10] [%] | Mean Inhib (%) [11] [%] | Mean Inhib (%) [12] [%] | Mean Inhib (%) [13] [%] | Mean Inhib (%) [14] [%] | Mean Inhib (%) [15] [%] | Mean Inhib (%) [16] [%] | Mean Inhib (%) [17] [%] | Mean Inhib (%) [18] [%] | Mean Inhib (%) [19] [%] | Mean Inhib (%) [20] [%] | further results |
| --- | --- | --- | --- | --- | --- | --- | --- | --- | --- | --- | --- | --- | --- | --- | --- | --- | --- | --- | --- | --- | --- |
| Cc1ccc(NC(=O)c2ccnc(N3CCOCC3)c2)cc1Nc1ccnc(N2CC(C)OC(C)C2)n1 (stereo not shown) [compound 3] | 6.3 | 16.9 | −1.8 | 11.2 | 3.2 | 3.0 | 14.4 | 0.8 | 4.7 | 13.5 | 13.1 | 2.1 | 15.9 | −2.9 | 7.1 | 30.7 | 8.5 | −3.1 | 2.2 | −0.8 | Mean Inhib (%) [21]: 7.8%; Mean Inhib (%) [22]: 65.5%; Mean Inhib (%) [23]: −1.6%; Mean Inhib (%) ([24]; WNK1 FRET-Lantha SP): 2.7%; Mean Inhib (%) [25, 26]: 17.9%; Mean Inhib (%) [25, 27]: 5.3% |
| Cc1cc(Oc2ccnc(Nc3ccc(S(N)(=O)=O)cc3)c2)c(-c2ccccn2)nc1C [compound 65] | 49.5 | 12.0 | 6.7 | 5.1 | 3.8 | −5.0 | 5.4 | 55.2 | 4.6 | 5.5 | 18.4 | 1.5 | 16.2 | 2.4 | 0.5 | 20.1 | −2.5 | 8.7 | −5.0 | 5.3 | Mean Inhib (%) [21]: 2.1%; Mean Inhib (%) [22]: 1.6%; Mean Inhib (%) [23]: −3.1%; WNK1 FRET-Lantha SP Mean Mean Inhib (%) ([24]; WNK1): 5.3%; Mean Inhib (%) [25, 26]: 12.1%; Mean Inhib (%) [25, 27]: 5.2% |
